This is an account of results in the SangsterLogP compilation.

As usually defined, the logD is the decadic logarithm of the distribution of all forms, ionised or not, between an organic phase and buffer at a given pH. A high value points to higher lipophilicity. The logP is a log measure of how a compound divides between an organic and an aqueous phase.

Data set [1] is described as follows: method code SF-RC, from DOI: 10.1016/j.apradiso.2005.06.012, PMID: 16131471. The conditions noted are these: pH 7.5.
Assay in data set [2]: not given
This is another data set of the same source.

The nature of data set [3]: method code SF-AS, from DOI: 10.1021/jf60177a051.
Assay in data set [4]: not given
The source holds these as a separate data set.

Data set [5] is described as follows: method code SF-RC, from DOI: 10.1016/s0969-8051(00)00080-9, PMID: 10832080. The note with it: pH 13.0.
Assay in data set [6]: not given
The source holds these as a separate data set.

The nature of data set [7]: method code SF-AS, from PMID: 582409. The note with it: pH 7.4.
Assay in data set [8]: not given
This is another data set of the same source.

Assay in data set [9]: not given
The source holds these as a separate data set.

Assay in data set [10]: not given
The source holds these as a separate data set.

Data set [11] in a line: method code SF-HPLC, from DOI: 10.1016/s0223-5234(97)84356-5.
A short description of data set [12]: method code SF-AS, from DOI: 10.1002/jps.2600751012, PMID: 3795027.
Data set [13] can be described thus: method code SF-AS, from DOI: 10.1211/0022357011776199, PMID: 11428660. The note with it: pH 7.4.
A short description of data set [14]: method code SF-HPLC, from DOI: 10.3109/03639045.2012.690417, PMID: 22670797.
Assay in data set [15]: not given
The source holds these as a separate data set.

Data set [16] is described as follows: method code SF-AS, from PMID: 301777.
Data set [17] in a line: method code …, from Pirumyan, G.; Martiryan, A.; Skurlator, Yu.; Petrosyan, D.; Akhnazaryan, A.; Arutyunyan, V. (1988). Transformations of pyrazolone compounds for fish farming in aqueous medium. Chemical Journal of ….
The nature of data set [18]: method code SF, from DOI: 10.1177/1087057110396372, PMID: 21343602. The note with it: pH 7.4.
Assay in data set [19]: not given
This is another data set of the same source.

Data set [20] in a line: method code SF-HPLC, from DOI: 10.1021/jm970790w, PMID: 9548821. The conditions noted are these: pH 7.4.
A short description of data set [21]: method code SF-AS, from DOI: 10.1021/js960328j, PMID: 9050798. The note with it: pH 6.6.
A short description of data set [22]: method code SF-RC, from DOI: 10.1111/j.1399-3054.1990.tb08712.x.
Assay in data set [23]: not given
The source holds these as a separate data set.

A short description of data set [24]: method code SF-AS, from DOI: 10.1002/em.2850200210, PMID: 1505530.
Assay in data set [25]: not given
This is another data set of the same source.

Data set [26] can be described thus: method code SF-RC, from DOI: 10.1007/bf00263256, PMID: 6394334.
Assay in data set [27]: not given
The source holds these as a separate data set.

Data set [28] can be described thus: method code SF-RC, from DOI: 10.1021/jm8013376, PMID: 19216563. The note with it: pH 7.4.
Data set [29] in a line: method code SF-HPLC, from DOI: 10.1002/etc.5620170216.
Assay in data set [30]: not given
This is another data set of the same source.

Data set [31] can be described thus: method code SF-TN, from DOI: 10.1002/jps.2600741210, PMID: 4087196. The conditions noted are these: pH 7.4.
A short description of data set [32]: method code SF, from DOI: 10.1248/cpb.34.4787.
Assay in data set [33]: not given
The source holds these as a separate data set.

A short description of data set [34]: method code SF, from DOI: 10.1016/j.ejps.2007.04.003, PMID: 17540545. The conditions noted are these: pH 3.0.
A short description of data set [35]: method code SF-RC, from PMID: 892676.
Assay in data set [36]: not given
This is another data set of the same source.

Data set [37] in a line: method code SF-RC,AS, from DOI: 10.1021/es60170a013. The note with it: pH 8.7.
Assay in data set [38]: not given
The source holds these as a separate data set.

Data set [39] is described as follows: method code SF-GLC, from DOI: 10.1016/j.chemosphere.2013.04.065, PMID: 23732011.
A short description of data set [40]: method code SF, from DOI: 10.1016/s0021-9673(00)89463-7. The note with it: pH 2.4.
A short description of data set [41]: method code SF-AS, from DOI: 10.1211/0022357001773940, PMID: 10757413. The conditions noted are these: pH 7.4.
Assay in data set [42]: not given
This is another data set of the same source.

Data set [43] can be described thus: method code SF-GLC, from DOI: 10.1016/s0380-1330(82)71969-0.
Data set [44] in a line: method code SF, from He, J.; Lang, L.; Zhang, Q.; Dong, L.; Chen, F.; Xu, G. (2010). Study on physicochemical properties of helicid. China Pharmacy, (1)23-25. The note with it: pH 2.0.
Assay in data set [45]: not given
This is another data set of the same source.

Data set [46] can be described thus: method code SF-AS, from DOI: 10.1016/0223-5234(96)88239-0. The note with it: pH 2.0.

On to `COc1ccc2[nH]c(I)c(CCNC(C)=O)c2c1`, for which the logD in data set [1] was 2.52. Compound `O=C(O)c1cc(-c2ccc(F)cc2F)ccc1O` showed a logP of 3.95. In [2], `CCCCOC(=O)COc1cc(Cl)c(Cl)cc1Cl` registered a logP of 4.81. In the case of `Cc1nc(C)c(C(=O)Nc2ccccc2)s1`, in [3], the logP amounted to 1.08.

`O=[N+]([O-])c1ccc(Oc2ccc(C(F)(F)F)cc2[N+](=O)[O-])cc1`: the logP in data set [4] was determined as 3.7. For `CN1C2CCC1C(c1ccc(Cl)nc1)C2` (configuration not stated), the logD in data set [5] is 2.42. The compound `O=C(Oc1ccccc1)c1ccccc1` had a logP in [6] of 3.5. The compound `COc1ccc(-c2nc3c(N)nc(N)nc3nc2N)cc1` yielded a pH-dependent lipophilicity (logD) in data set [7] of 1.19. Regarding `CCOP(=O)(OCC)Oc1cc(C)nc(NC(C)C)n1`, in data set [8], the logP was determined as 2.07. In [9], `Cn1ccc2cc(-c3nc4ccc(F)nc4o3)cnc21` yielded a logP of 2.91. As for `CCCCCCc1ccccc1`, the logP in data set [10] amounted to 5.24.

As for `CC(=O)Nc1nc2c(ncn2COCCOC(C)=O)c(=O)[nH]1`, in data set [11], the logP was -0.83. `O=C(OCc1ccccc1)c1cccnc1`: the logP in data set [12] was found to be 2.4.

Turning to `Cc1ncc([N+](=O)[O-])n1CCOC(=O)CN1CCCCC1`, the logD in data set [13] was found to be 0.51. `CC(C)(C)c1ccc(/C=N/NC(N)=S)cc1` registered a logP in data set [14] of 3.9. The compound `FCCCN1CCC[C@H]1COc1cccnc1` had a lipophilicity (logP) in data set [15] of 2.2. As for `CCc1nc(N)nc(N)c1-c1ccc(Cl)c(Cl)c1`, the logP in [16] is 3.19. In data set [17], `CC1(C)CC(=O)NN1C=NNc1ccccc1` displayed a logP of 0.26. Consider `c1ccc(Nc2ccccc2)cc1`, for which, in data set [18], the logD worked out at 3.57.

For the compound `c1cc2c3c(cccc3c1)CC2`, the logP in data set [19] is 3.98. In turn, `CC1(C)O[C@@H]2[C@@H](CO[C@@]3(COS(N)(=O)=O)OC(C)(C)O[C@@H]23)O1` had a logD in [20] of 0.53. For the compound `CCCS(=O)c1ccc2[nH]c(NC(=O)OC)nc2c1` (configuration not stated), in data set [21], the logD worked out at 1.27. For `c1ccc(CNc2ncnc3[nH]cnc23)cc1`, the log partition coefficient (logP) in data set [22] turned out to be 1.57. `Cc1cc2cccc(C)c2cc1C` gave a logP in data set [23] of 4.73. In [24], `O=C1c2ccccc2-c2cc([N+](=O)[O-])ccc21` came in with a logP of 3.06. In turn, `O=c1[nH]c2c(c(=O)n1C1CCCCC1)CCC2` yielded a logP in [25] of 1.9. In [26], `CC(=NO)C(C)(C)NCCCNC(C)(C)C(C)=NO` came in with a logP of 1.76. `N#Cc1ccc(NS(=O)(=O)c2ccc(N)cc2)cc1`: the logP in data set [27] was determined as 1.43. The compound `Oc1ccc2nc(-c3ccccc3)sc2c1` displayed a logD in data set [28] of 2.48. In [29], `c1ccc2cc3ccccc3cc2c1` yielded a logP of 4.68.

In turn, `Fc1cccc(-n2nnnc2Oc2ccccc2)c1` showed a logP in data set [30] of 3.6.

`CCCCOC(=O)[C@@H](N)Cc1ccc(O)cc1` displayed a logD in data set [31] of 1.8.

In data set [32], `O=C(O)c1ccc(-c2ccccc2)cc1` yielded a logP of 3.75. `CCC(C)c1ccccc1OC(=O)NC` (configuration not stated) returned a logP in data set [33] of 2.8.

`CCn1cc(C(=O)O)c(=O)c2cc3c(cc21)OCO3` came in with a logD in data set [34] of 1.01. In [35], `O=C(Nc1ccc(Cl)cc1)Nc1ccc(Cl)c(C(F)(F)F)c1` yielded a logP of 2.93. For `CC(C)c1cccc(C(C)C)c1O`, the logP in [36] was determined as 3.63.

Turning to `Nc1ccc(-c2ccc(N)c(Cl)c2)cc1Cl`, the logD in data set [37] came to 3.51. On to `CCNc1ccc(C(=O)OCCN(C)C)cc1`, for which, in data set [38], the logP was 2.62. On to `C=CCOc1ccccc1OCC=C`, for which the logP in data set [39] is 2.7. As to `O=C(O)c1ccc2oc3ccccc3c(=O)c2c1`, the logD in data set [40] amounted to 3.12. Regarding `CCc1c(O)c(=O)ccn1CCCn1ccnc1`, the logD in [41] is -0.32. `CCCCCCn1c(=O)c2c(ncn2C)n(C)c1=O` displayed a logP in data set [42] of 1.2.

Regarding `Clc1ccc(C(c2ccc(Cl)cc2)C(Cl)(Cl)Cl)cc1`, the logP in data set [43] stood at 5.1. In turn, `O=Cc1ccc(O[C@@H]2O[C@H](CO)[C@@H](O)[C@@H](O)[C@H]2O)cc1` registered a logD in [44] of -1.08. In data set [45], `Nc1ccc(S(=O)(=O)Nc2cccc(Cl)c2Cl)cc1` returned a logP of 2.62. Compound `Cn1c(C(=O)O)cnc1C(=O)c1ccc([N+](=O)[O-])cc1` displayed a logD in data set [46] of 2.14.
